The values below come from patent US8093296B2 (Mutual Pharmaceutical Company, Inc., priority 2008, dated 2012).

Molecules are shown by their SMILES. Entries after “also recorded” stand apart in the source; their conditions may differ. Read-outs that look alike come from different tables or passages of the source.

The CL/F is clearance divided by bioavailability, as obtained after extravascular dosing. As a reminder, the Cmax is the maximum level reached in the sampled fluid or tissue. Usually half-life stands for the time in which the quantity being followed falls by half. What is called Vd/F is the volume of distribution divided by bioavailability.

The conditions of data set [1]: cited from earlier work.
Data set [2] in a line: Pharmacokinetic study in healthy adults of single vs. multiple oral doses of colchicine tablets (Example 1).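 For all read-outs here: each subject received both dosing periods, single and repeated oral dosing, with a 14-day washout interval between periods.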 Format: in vivo, human. To be noted: for concentration at 25 day: 0.6 mg.
Experimental: Subjects received a light breakfast served 60 minutes following dose administration in the morning and the evening dose was administered 90 minutes after an evening meal on Days 15 through 24 only. […] Study periods were separated by a 14-day washout. Following the single dose and the last dose of the multiple dose regimen (beginning on the mornings of Day 1 and Day 25, respectively), blood samples were collected (6 mL each) from each subject within 1 hour prior to dosing and after dose administration at study hours 0.5, 1, 1.5, 2, 3, 4, 6, 8, 10, 12, and 24 (while confined) and 36, 48, 72, and 96 (on an outpatient basis).
Another data set concerns CYP2C9/19. The following applies: Dvorak 2000, preliminary; 1 and 10 μM colchicine; cited from earlier work.
For data set [3] the following is noted: colchicine 0.6 mg twice a day, two randomized clinical trials, patients initiating urate lowering therapy; cited from earlier work.
For data set [4] the following is noted: colchicine administration; cited from earlier work.
Data set [5] is described as follows: Colchicine elimination half-life after multiple oral doses in young healthy volunteers. Format: in vivo. The following applies: human, plasma; multiple oral doses 0.6 mg twice daily, young healthy volunteers (mean age 25 to 28 years).
The next data set can be described thus: clinical. The following applies: human, in vivo, 0.6 mg.
[6] abbreviates: co-administration of clarithromycin vs colchicine alone.
Setting [7] is: colchicine 0.6 mg with steady-state clarithromycin vs colchicine alone.
Where [8] appears, read: mean, Day 1, single-dose colchicine 0.6 mg alone, healthy adults n=23.
Where [9] appears, read: mean, multiple (b.i.d.) oral doses 0.6 mg x 10 days, Day 25, healthy adults N=13.
Setting [10] is: mean, single oral dose 0.6 mg, healthy adults N=13.
[11] abbreviates: median, multiple (b.i.d.) oral doses 0.6 mg x 10 days, Day 25, healthy adults N=13.
[12] abbreviates: median, single oral dose 0.6 mg, healthy adults N=13.

Experimental for clinical: A single-center, open-label, one sequence, two-period study was carried out in 23 healthy subjects. […] After completing a 21-day washout period, all subjects received 250 mg of clarithromycin administered twice daily for 7 days (Days 22 through 29), a sufficient dose and duration to inhibit CYP3A4 and Pgp.

For `CC[C@H]1OC(=O)[C@H](C)[C@@H](O[C@H]2C[C@@](C)(OC)[C@@H](O)[C@H](C)O2)[C@H](C)[C@@H](O[C@@H]2O[C@H](C)C[C@H](N(C)C)[C@H]2O)[C@](C)(OC)C[C@@H](C)C(=O)[C@H](C)[C@@H](O)[C@]1(C)O` [Clarithromycin], the “oral dose excreted in feces” value in data set [1] (in vivo, po) is given as “About 40%”. Besides, the “dose excreted as unchanged drug in urine” value is on record as “Approximately 20%” in data set [1] (oral 250 mg every 12 hours) and approximately 30% in data set [1] (oral 500 mg every 12 hours). The absolute bioavailability entry in data set [1] (oral administration) is listed as “approximately 50%”. In data set [1] (with food), the “increase of peak concentration by food” value was “about 24%”.
Regarding `COc1cc2c(c(OC)c1O)-c1ccc(OC)c(=O)cc1[C@@H](NC(C)=O)CC2` [2-DMC, 2-O-demethylcolchicine], in data set [2] (after colchicine 0.6 mg single and multiple doses, LOQ 0.2 ng/mL), the metabolite plasma concentrations was less than 0.2 ng/mL.
With `COc1c(O)cc2c(c1OC)-c1ccc(OC)c(=O)cc1[C@@H](NC(C)=O)CC2` [3-DMC, 3-O-demethylcolchciine], the “CYP2C9/19 protein levels (immunoblotting)” value in the data set with CYP2C9/19 is given as “decrease”. Besides, the “detectable metabolite plasma concentration” value in data set [2] (after colchicine 0.6 mg single and multiple doses, 13 subjects) is “only one sample from 1 subject (of 13 subjects) had a detectable”.
In the case of `COc1cc2c(c(OC)c1OC)-c1ccc(OC)c(=O)cc1[C@@H](NC(C)=O)CC2` [Colchicine, (−)-N-[(7S,12aS)-1,2,3,10-tetramethoxy-9-oxo-5,6,7,9-tetrahydrobenzo[a]heptalen-7-yl]-acetamide], the “CYP2C9/19 protein levels (immunoblotting)” value with CYP2C9/19 is reported as “appeared to decrease”. In data set [3], the “frequency of gout flares” value is on record as “decreased the frequency of gout flares”. For the same compound, the “FMF patients that do not show a beneficial response” value in data set [4] was 5-10%. Moreover, under setting [6], the “decrease in apparent clearance (CL/F) of colchicine” value turned out to be 75% and the “increase in plasma elimination half-life (t1/2) of colchicine” value came out at 233%. Under setting [7], the “increase in mean colchicine AUC0-t” value is given as 250% and the “increase in mean colchicine Cmax” value is given as 167%. Under setting [8], this compound gave a CL/F of 46.8 L/h, a Cmax of 3 ng/mL, a Ke of 0.132 h⁻¹ and a t1/2 of 9 h. Also, the half-life in data set [5] lay within 26.6 to 31.2 h. For the same compound, in the data set “clinical”, the AUC0-inf stood at 16 ng·h/mL, the AUC0-t was 12 ng·h/mL and the Vd/F is 432 L. The “attainment of steady state (trough plasma concentrations)” value in data set [2] (0.6 mg b.i.d., most subjects) is on record as “by approximately the eighth day of dosing”. Further, the “plasma concentrations 24 hours post-dose” value in data set [2] (after a single 0.6 mg dose) is listed as “no longer quantifiable 24 hours post-dose in all but 1 subject; also recorded: not detectable by 24 hours post-dose”. In addition, the elimination half-life result in data set [2] (calculated following a single oral dose, stated not an accurate estimate) was “approximately 5 hours”. Moreover, the concentration at 25 day in data set [2] (human, in vivo, Day 25, read-out: mean Cmin concentration) worked out at 0.907 ng/mL. For the same compound, the concentration at 25 day in data set [2] (human, in vivo, po, mean, multiple (b.i.d.) oral doses 0.6 mg x 10 days, Day 25, healthy adults N=13, read-out: Cmin) turned out to be 0.907 ng/mL. Also, the concentration at 25 day in data set [2] (human, in vivo, po, median, multiple (b.i.d.) oral doses 0.6 mg x 10 days, Day 25, healthy adults N=13, read-out: Cave) was found to be 1.19 ng/mL. Moreover, the concentration at 25 day in data set [2] (human, in vivo, po, median, multiple (b.i.d.) oral doses 0.6 mg x 10 days, Day 25, healthy adults N=13, read-out: Cmin) is 0.903 ng/mL. The compound also showed a Vd/F in data set [2] (human, in vivo, mean (% CV), 0.6-mg single dose, Day 1, N=13) of 540 L. In data set [2] (setting [9]), this compound showed an AUC0-τ of 29.05623 ng·h/mL, a Cave of 1.21068 ng/mL and a Kel of 0.03 h⁻¹. In data set [2] (setting [10]), this compound returned an AUC0-inf of 12.2819 ng·h/mL, an AUC0-t of 10.50854 ng·h/mL, a Cmax of 2.47077 ng/mL and a Kel of 0.1829 h⁻¹. In data set [2] (setting [11]), this compound showed an AUC0-inf of 54.11343 ng·h/mL, an AUC0-τ of 28.45215 ng·h/mL, a Kel of 0.03 h⁻¹ and a T1/2 of 26.51 h. In data set [2] (setting [12]), this compound yielded an AUC0-t of 10.5609 ng·h/mL and a Kel of 0.1992 h⁻¹. Besides, in data set [2] (single dose or multiple dosing), the “secondary colchicine peak in individual subject data” value is given as “no subject experienced a secondary colchicine peak”. Moreover, the “Cmin prior to morning dose higher than Cmin prior to evening dose” value in data set [2] (steady state, Day 23 and Day 24) was “approximately 12%”.
